d = 2'-deoxy (DNA); m = 2'-O-methyl
Tests used:
A549 cells [1] = test: Growth inhibition by antisense oligos, A549; assay type: cell-based, human; conditions: 50 nM, 48 hour, vs cells treated with lipofectin
Method: (§1) For all ex vivo oligo treatment, human A549 human […] carcinoma cells were seeded in 10 cm tissue culture dishes one day prior to oligonucleotide treatment. The cell lines were obtained from the American Type Culture Collection (ATCC) (Manassas, Va.) and were grown under the recommended culture conditions. Before the addition of the oligonucleotides, cells were washed with PBS (phosphate buffered saline). Next, lipofectin transfection reagent (GIBCO BRL Mississauga, Ontario, Calif.), at a concentration of 6.25 μg/ ml, was added to serum free OPTIMEM medium (GIBCO BRL, Rockville, Md.), which was then added to the cells. The oligonucleotides were added directly to the cells (i.e., one oligonucleotide per plate of cells). Mismatched oligonucleotides were used as controls. The same concentration of oligonucleotide (e.g., 50 nM) was used per plate of cells for each oligonucleotide tested.
(§2) In order to determine the effect of HDAC ODNs on cell growth inhibition and cell death through apoptosis, A549, T24, DuI45, HCT116 cells (ATCC, Manassas, Va.), or HMEC cells (BioWhittaker, Walkersville, Md.) were treated with HDAC ODNs as previously described.
(§3) For the cell growth inhibition analysis, human cancer or normal cells were treated with 50 nM of paired AS or MM oligos directed against human HDAC-1, HDAC-7 or HDAC-8for up to 96 hours. Cell numbers were counted every day by trypan blue exclusion. Percentage of inhibition was calculated as (100 - AS cell numbers/control cell numbers)%.

T24 cells = test: Apoptosis (Cell Death Detection ELISA), T24; assay type: cell-based, human; conditions: 50 nM, 48 hours, over mismatch control
Method: as §1, §2
(§4) For the apoptosis study, cells were analyzed using the Cell Death Detection ELISA^Plus kit (Roche Diagnostic GmBH, Mannheim, Germany) according to the manufacturer's directions. Typically, 10,000 cells were plated in 96-well tissue culture dishes for 2 hours before harvest and lysis. Each sample was analyzed in duplicate. ELISA reading was done using a MR700 plate reader (DYNEX Technology, Ashford, Middlesex, England) at 410 nm. The reference was set at 490 nm.

A549 cells [2] = test: Apoptosis (Cell Death Detection ELISA), A549; assay type: cell-based, human; conditions: 50 nM, 48 hours, over mismatch control
Method: as §1, §2, §4
[…] Similarly, A549 cells were treated with 20 nM of HDAC1 AS in combination with 20 nM of each of AS inhibitors against human HDAC2 to HDAC8. After 48 hour treatment, A549 cells were harvested and analyzed for apoptosis by ELISA as described previously. Apoptosis of A549 cells by AS inhibition was compared to that of cells treated with 1 uM TSA for 16 hours. […] The control oligo UMM had no effect on induction of apoptosis.

HCT116 cells [3] = test: Inhibition of agar colony formation, HCT116; assay type: cell-based, human; conditions: 50 nM oligos for 48 hours, vs cells treated with lipofectin
human HDAC-8 mRNA = test: HDAC-8 mRNA expression in A549 cells, Northern blot; assay type: cell-based
Method: To identify antisense oligodeoxynucleotides (ODN) capable of inhibiting HDAC-8 expression in human cancer cells, fourteen phosphorothioate ODNs containing sequences complementary to the 5′ or 3′ UTR of the human […] (GenBank Accession No. AF230097) were initially screened in A549 cells at 100 nM. Cells were harvested after 24 hours of treatment, and HDAC-8 RNA expression was analyzed by Northern blot analysis. […] Total RNAs were harvested and were analyzed by Northern Blot. GAPDH expression was analyzed to indicate total RNA loading in each lane.
In order to determine the dose response of HDAC7 antisense inhibitors to reduce HDAC7 message at the mRNA level, Human A549 cells were treated with 25 or 50 nM of antisense (AS1 and AS2) oligos directed against human HDAC-7 or the corresponding mismatch of AS1 (MM1) oligo or an universal mismatch (UMM) for 24 hours. […] The time dependence of HDAC7 antisense inhibitors on blocking HDAC7 gene expression at the mRNA level was analyzed by treating A549 cells with 50 nM AS1 or MM1 oligos. […] Similarly, A549 cells were treated with 25 nM or 50 nM of AS1 or AS2 oligos directed against human HDAC-8 or its MM oligo for AS2 (MM2) for 24 hours. AS-2 oligo against human HDAC8 at 50 nM was also used to treat A549 cells for 24 or 48 hours.
as §1
Cells were harvested, and total RNAs were analyzed by Northern blot analysis. Briefly, total RNA was extracted using RNeasy miniprep columns (QIAGEN Canada, Mississauga, Ontario). Ten to twenty […] of total RNA was run on a formaldehyde-containing 1% agarose gel with 0.5 M sodium phosphate (pH 7.0) as the buffer system. RNAs were then transferred to nitrocellulose membranes and hybridized with the indicated radiolabeled DNA probes. Autoradiography was performed using conventional procedures.

Du145 cells = test: Growth inhibition by antisense oligos, Du145; assay type: cell-based, human; conditions: 50 nM, 48 hour, vs cells treated with lipofectin
Method: as §1, §2, §3

human HDAC-6 RNA = test: HDAC-6 RNA expression screen, Northern blot; assay type: cell-based; conditions: screened as above (T24 cells, 100 nM, 24 hours)
Method: (§5) To identify antisense oligodeoxynucleotide (ODN) capable of inhibiting HDAC-1 expression in human cancer cells, eleven phosphorothioate ODNs containing sequences complementary to the 5′ or 3′ UTR of the human HDAC-1 gene (GenBank Accession No. U50079) were initially screened in T24 cells at 100 nM. Cells were harvested after 24 hours of treatment, and HDAC-1 RNA expression was analyzed by Northern blot analysis. […] HDAC-1 MM oligo was created as a control; compared to the antisense oligo, it has a 6-base mismatch.
Thirteen phosphorothloate ODNs containing sequences complementary to the 5′ or 3′ untranslated regions of the human HDAC-6 gene (GenBank Accession No. AJ011972) were screened as above. […] HDAC-6 MM oligo was created as a control; compared to the antisense oligo, it contains a 7-base mismatch.

human HDAC-2 RNA = test: HDAC-2 RNA expression screen, Northern blot; assay type: cell-based; conditions: screened as above (T24 cells, 100 nM, 24 hours)
Method: as §5
Twenty-four phosphorothioate ODNs containing sequences complementary to the 5′ or 3′ UTR of the human HDAC-2 gene (GenBank Accession No. U31814) were screened as above. […] HDAC-2 MM was created as a control; compared to the antisense oligo, it contains a 7-base mismatch.

MDAmb231 cells [4] = test: Inhibition of agar colony formation, MDAmb231; assay type: cell-based, human; conditions: 50 nM oligos for 48 hours, vs cells treated with lipofectin
MDAmb231 cells [5] = test: Apoptosis (Cell Death Detection ELISA), MDAmb231; assay type: cell-based, human; conditions: 50 nM, 48 hours, over mismatch control
MDAmb231 cells [6] = test: Growth inhibition by antisense oligos, MDAmb231; assay type: cell-based, human; conditions: 50 nM, 48 hour, vs cells treated with lipofectin
Method: [The procedure below names another cell line; the source lists this cell line under the same test.] as §1, with “tested. […]” for “tested.”
as §3

HCT116 cells [7] = test: Growth inhibition by antisense oligos, HCT116; assay type: cell-based, human; conditions: 50 nM, 48 hour, vs cells treated with lipofectin
Method: as §1, with “tested. […]” for “tested.”
as §3

mammalian HDAC = conditions: Yoshida et al., J. Biol. Chem. 265:17174-17179 (1990); cited from earlier work
[8] = system: murine erythroleukemia cells; conditions: Yoshida et al, Cancer Res. 47:3688-3691 (1987); cited from earlier work

| Compound | Growth Inhibition A549 (A549 cells [1]) | Apoptosis T24 (T24 cells) | Apoptosis A549 (A549 cells [2]) | inhibition of agar colony formation HCT 116 (HCT116 cells [3]) | Growth Inhibition Du145 (Du145 cells) | also measured |
| --- | --- | --- | --- | --- | --- | --- |
| 5′-AGCCAGCTGCCACTTGAUGC-3′ (sugars from the 5' end m4 d12 m4, all phosphorothioate, methylation of C not given here) [HD8 AS2, antisense oligo, Human HDAC8 3′-UTR] | + (“+” means >35% inhibition of cell growth by antisense oligos (50 nM, 48 hour) compared to that of cells treated with lipofectin) | + (“+” means the induction of apoptosis at least 2 fold over mismatch control (50 nM, 48 hours)) | + (“+” means the induction of apoptosis at least 2 fold over mismatch control (50 nM, 48 hours)) | + (“+” means >35% inhibition of agar colony formation of cells treated with 50 nM oligos for 48 hours compared to that of cells treated with lipofectin) | + (“+” means >35% inhibition of cell growth by antisense oligos (50 nM, 48 hour) compared to that of cells treated with lipofectin) | HDAC-8 mRNA expression, dose response (FIG. 5) (human HDAC-8 mRNA; 25 nM or 50 nM, 24 hours): inhibited in a dose-dependent manner; HDAC-8 mRNA expression, time course (FIG. 6) (human HDAC-8 mRNA; 50 nM, 24 or 48 hours): significantly block HDAC8 expression at the mRNA level by 24 hours; HDAC-8 RNA expression, initial screen (human HDAC-8 mRNA; 100 nM, 24 hours): good antisense activities |
| 5′-CAGGCTGGAATGAGCTACAG-3′ (sugars from the 5' end m4 d12 m4, all phosphorothioate, methylation of C not given here) [HD6 AS, antisense oligo, Human HDAC6 3′-UTR] |  |  |  |  |  | HDAC-6 RNA expression, screen (human HDAC-6 RNA): antisense activity to human HDAC-6 |
| 5′-GCUGAGCTGTTCTGATUUGG-3′ (sugars from the 5' end m4 d12 m4, all phosphorothioate, methylation of C not given here) [HD2 AS, antisense oligo, Human HDAC2 3′-UTR] |  |  |  |  | + (“+” means >35% inhibition of cell growth by antisense oligos (50 nM, 48 hour) compared to that of cells treated with lipofectin) | HDAC-2 RNA expression, screen (human HDAC-2 RNA): antisense activity to human HDAC-2 |
| 5′-GCUGCCTGCCGTGCCCACCC-3′ (sugars from the 5' end m4 d12 m4, all phosphorothioate, methylation of C not given here) [HD4 AS1, antisense oligo, Human HDAC4 5′-UTR] | + (“+” means >35% inhibition of cell growth by antisense oligos (50 nM, 48 hour) compared to that of cells treated with lipofectin) | + (“+” means the induction of apoptosis at least 2 fold over mismatch control (50 nM, 48 hours)) | + (“+” means the induction of apoptosis at least 2 fold over mismatch control (50 nM, 48 hours)) | + (“+” means >35% inhibition of agar colony formation of cells treated with 50 nM oligos for 48 hours compared to that of cells treated with lipofectin) | + (“+” means >35% inhibition of cell growth by antisense oligos (50 nM, 48 hour) compared to that of cells treated with lipofectin) | inhibition of agar colony formation MDAmb 231 (MDAmb231 cells [4]): + (“+” means >35% inhibition of agar colony formation of cells treated with 50 nM oligos for 48 hours compared to that of cells treated with lipofectin); Apoptosis MDAmb 231 (MDAmb231 cells [5]): + (“+” means the induction of apoptosis at least 2 fold over mismatch control (50 nM, 48 hours)); Growth Inhibition MDAmb 231 (MDAmb231 cells [6]): + (“+” means >35% inhibition of cell growth by antisense oligos (50 nM, 48 hour) compared to that of cells treated with lipofectin); Growth Inhibition HCT 116 (HCT116 cells [7]): + (“+” means >35% inhibition of cell growth by antisense oligos (50 nM, 48 hour) compared to that of cells treated with lipofectin) |
| CC(/C=C/C(=O)NO)=C\[C@@H](C)C(=O)c1ccc(N(C)C)cc1 [TSA, (R)-Trichostatin A] |  |  |  |  |  | inhibition of mammalian HDAC (mammalian HDAC): potent inhibitor; induction of differentiation [8]: potent inducer of differentiation |

— patent publication US20040072770A1, “Methods for specifically inhibiting histone deacetylase-7 and 8” (priority 2002, published 2004)
